From paper PMC5283093 (European journal of medicinal chemistry, 2016)

Legend:
[1] = molecular target: HIV-1 integrase (IN) (Human immunodeficiency virus type 1 group M subtype B, UniProt P12497); experiment: HTRF-based LEDGF/p75 independent 3′-processing assay; type: biochemical
[2] = system: HEK293T cells; details: without viral infection (Fig. 4B)

Row | SMILES | inhibition of IN 3′processing activity in the absence of LEDGF/p75 (in words) [1] | cellular toxicity in words [2]
1 | O=C(O)c1cc(N(Cc2cccc(F)c2)Cc2cccc(F)c2)ccc1O [Compound 6, 5-[Bis(3-fluorobenzyl)amino]-2-hydroxybenzoic acid] | weak inhibitions | –
2 | O=C(O)c1cc(N(Cc2ccccc2Cl)Cc2ccccc2Cl)ccc1O [Compound 2, 5-[Bis(2-chlorobenzyl)amino]-2-hydroxybenzoic acid] | weak inhibitions | significant cellular toxicity
3 | O=C(O)c1cc(N(Cc2ccccc2)Cc2ccccc2)ccc1O [Compound 1, 5-(Dibenzylamino)-2-hydroxybenzoic acid] | weak inhibitions | –
4 | O=C(O)c1cc(N(Cc2ccccc2F)Cc2ccccc2F)ccc1O [Compound 5, 5-[Bis(2-fluorobenzyl)amino]-2-hydroxybenzoic acid] | weak inhibitions | –
